Laboratory results as given in patent US4435404A, “Carbostyril derivatives” (priority 1980, dated 1984).
pIC50: −log10 of the molar value.

Columns and labels:
bastard dog = assay: Increasing effect of cerebral blood flow; type: in vivo; conditions: profunda femoris vein
Method: Thus, a bastard dog (male, 12-20 kg of body weight) was fixed in a prone (position) and was anesthetized with 20 mg/kg of pentobarbital sodium and made forced breathing to kept the frequency of respiration at 20 times/minutes. Then, the skull was bared and the surface bone was removed to expose the venous sinus by using grinder and the venous blood was took out from the venas which was cannulizated. The amount of venous blood flow was measured by using an electromagnetic blood flow meter and next measured by using drop-counter by measuring the number of drops of blood per 10 seconds.
The increasing effect of cerebral blood flow was calculated by comparing the number of blood drops in 30 seconds at the peak of increasement shown before and after the administration of compound to be tested. The each of compounds to be tested was dissolved in dimethylformamide and diluted with physiological saline solution and administered through a cannule being inserted into the profunda femoris vein.

[1] = test system: Deoxycorticosteroneacetate (DOCA)/saline hypertension rats (DHR); assay: Hypotensive effect, Tail-cuff method, DHR; type: in vivo, rat; conditions: 30 mg/kg oral, mean value ± standard deviation
Method: Hypotensive effect of the compounds were measured by determining the maximum blood pressure of the test animals according to a procedure of Tail-cuff method.
Test animals used were the following two types.
(2) Deoxycorticosteroneacetate (DOCA)/saline hypertension rats (DHR)
Wistar strain male rats having 150-170 g of body weight, were anesthetized with ether and the left-side kidney was enucleated. One (1) week after the operation, 10 mg/kg of DOCA was injected subcutaneously once a week and 1% NaCl aqueous solution was given as drinking water. Five (5) weeks after the operation, rats having the maximum blood pressure over 150 mmHg were selected and used as test animals which were abstained from food for overnight.
Each of compounds to be tested were administered orally and the blood pressure was measured before the administration and 1, 2, 4, 6 and 8 hours after the administration. The blood pressure was measured by using Recorder (Rectihoriz type 8S, San-ei Instrument) and Electrosthygmomanometer PE-300 (Macro Bio-systems, Houston, Tex.).

[2] = test system: collagen-induced aggregation in rabbit platelet; assay: Inhibition effect on collagen-induced aggregation in rabbit platelet; type: cell-based; conditions: Oryctolagus cuniculus, Platelet, read-out: Inhibition effect on collagen-induced aggregation; for inhibition at 10 µM: concentration of the test compound solution 10^-5 mole; for inhibition at 1 µM: concentration of the test compound solution 10^-6 mole
Method: (§1) The platelet aggregation inhibitory effect is measured by using AG-II aggregometer (manufactured by Bryston Manufacturing Co.). The blood sample used for the test is a 1/9 (by volume) mixture of sodium citrate and whole blood collected from rabbit. Said sample is subjected to 10-minute centrifugal separation at 1,000 r.p.m. to obtain a platelet rich plasma (PRP). The thus obtained PRP is separated, and the remaining blood sample is further subjected to 15-minute centrifugal separation at 3,000 r.p.m. to obtain a platelet poor plasma (PPP).
(§2) The number of platelets in the PRP is counted by the Brecher-Clonkite Method, and the PRP is diluted with the PPP to prepare a PRP sample with platelet concentration of 300,000/mm^3 for the adenosine diphosphate (ADP)-induced aggregation test. There is also prepared a PRP sample with platelet concentration of 450,000/mm^3 for the collagen-induced aggregation test.
(§3) 0.6 Milliliter of said PRP sample is added into 0.01 ml of a solution of a test compound of a predetermined concentration and the mixture is placed in a 37° C. thermostat for one minute. Then 0.07 ml of an ADP or collagen solution is added to the mixture. Transmittance of this mixture is determined and the change of transmittance is recorded by using the aggregometer at stirrer speed of 1,100 r.p.m. […] The ADP solution is adjusted to a concentration of 7.5×10^-5 M, and the collagen solution is prepared by triturating 100 mg of collagen with 5 ml of said buffer and the supernatant is used as collagen inducer. Acetylsalicylic acid is used as control for the ADP-induced aggregation test and the collagen-induced aggregation test, respectively. The platelet aggregation inhibitory effect is measured in terms of percent inhibition with respect to the aggregation rate of the controls. The aggregation rate is calculated from the following formula:
(§4) Aggregation rate=[(c-a)/(b-a)]×100
(§5) b: transmittance of PRP containing a test compound and an aggregation inducer

[3] = test system: ADP-induced aggregation in rabbit platelet; assay: Inhibition effect on ADP-induced aggregation in rabbit platelet; type: cell-based; conditions: Oryctolagus cuniculus, Platelet; for inhibition at 100 µM: concentration of the test compound solution 10^-4 mole; for inhibition at 10 µM: concentration of the test compound solution 10^-5 mole; for inhibition at 1 µM: concentration of the test compound solution 10^-6 mole
Method: as §1, §2, §3, §4, §5

[4] = target: T1, cyclic AMP phosphodiesterase (Oryctolagus cuniculus, UniProt G1ST54); assay: Obstructive action against cyclic AMP phosphodiesterase; type: biochemical; conditions: rabbit platelet enzyme, 30° C., 20 minutes
T1 construct: the supernatant was collected to use it as a crude enzyme solution; from tissue; host or cells: rabbit platelets (from platelet-rich plasma)
T1 sequence (G1ST54 1-1128): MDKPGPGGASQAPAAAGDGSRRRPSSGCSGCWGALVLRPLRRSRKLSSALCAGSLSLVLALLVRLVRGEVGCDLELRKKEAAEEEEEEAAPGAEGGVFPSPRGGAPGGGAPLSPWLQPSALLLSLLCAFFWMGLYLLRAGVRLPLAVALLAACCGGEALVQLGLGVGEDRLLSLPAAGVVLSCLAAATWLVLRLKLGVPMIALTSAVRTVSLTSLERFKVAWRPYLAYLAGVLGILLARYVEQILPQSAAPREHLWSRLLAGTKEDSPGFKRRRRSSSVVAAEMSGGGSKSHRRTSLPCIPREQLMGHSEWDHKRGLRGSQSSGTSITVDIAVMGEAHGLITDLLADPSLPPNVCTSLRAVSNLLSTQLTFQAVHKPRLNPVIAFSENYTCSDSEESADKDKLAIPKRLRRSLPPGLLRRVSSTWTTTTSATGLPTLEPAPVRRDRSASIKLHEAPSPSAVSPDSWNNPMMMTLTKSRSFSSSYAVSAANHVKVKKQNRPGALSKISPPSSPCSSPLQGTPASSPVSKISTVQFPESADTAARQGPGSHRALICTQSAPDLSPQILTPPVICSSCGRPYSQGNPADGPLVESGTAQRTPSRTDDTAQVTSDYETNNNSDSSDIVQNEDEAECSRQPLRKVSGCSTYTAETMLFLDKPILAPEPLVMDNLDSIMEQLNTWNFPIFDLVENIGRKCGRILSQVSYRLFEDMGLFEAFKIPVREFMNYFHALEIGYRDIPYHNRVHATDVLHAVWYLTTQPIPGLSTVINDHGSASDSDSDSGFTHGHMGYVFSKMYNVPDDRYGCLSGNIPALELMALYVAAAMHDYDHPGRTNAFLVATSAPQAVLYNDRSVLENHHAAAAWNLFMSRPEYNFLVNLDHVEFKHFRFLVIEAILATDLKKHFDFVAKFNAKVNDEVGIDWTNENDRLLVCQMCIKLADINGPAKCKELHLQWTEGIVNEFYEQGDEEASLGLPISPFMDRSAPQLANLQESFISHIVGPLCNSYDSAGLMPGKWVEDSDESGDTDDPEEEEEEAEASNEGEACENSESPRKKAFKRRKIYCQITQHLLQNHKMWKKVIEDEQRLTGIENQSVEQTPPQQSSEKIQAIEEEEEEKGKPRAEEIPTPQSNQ
Method: That is, for determining the obstructive activity against cyclic AMP phosphodiesterase, 10 ml of a solution obtained by adding 1 mmol of MgCl2 into 50 mmol of tris-hydrochloric acid buffer with pH 7.4 was added to the platelets obtained by further centrifuging the above-said rabbit PRP at 3,000 r.p.m. for 10 minutes, and the suspended platelets were ground by a Teflon potter type homogenizer. This was followed by two times of freezing and thawing treatment and 300-second fracturing with 200 watt supersonic waves. After additional 60-minute centrifugation with 100,000 G, the supernatant was collected to use it as a crude enzyme solution.
10 Milliliters of this crude buffer solution was added to a 1.5×20 cm DEAE-cellulose column which has previously been buffered with 50 mM of tris-acetate buffer (pH 6.0), followed by washing and elution with 30 ml of 50 mM tris-acetate buffer, and this buffer solution was subjected to linear gradient elution with 0 to 0.5 moles of sodium acetate-tris-acetatebuffer (total amount of elute was 300 ml.). The flow rate was 0.5 ml/min, and 5 ml of each fraction was batched out. […] This fraction was used as cyclic AMP phosphodiesterase.
0.1 Milliliter of an aqueous solution of each test compound of a specified concentration was mixed with 40 mmol of tris-hydrochloric acid buffer (pH 8.0, containing 50 μg of cow serum albumin and 4 mmol of MgCl2) containing predetermined 1.0 μmol of cyclic AMP (tritium cyclic AMP), and 0.2 ml of this mixed solution was used as substrate solution.
0.2 Milliliter of the above-prepared cyclic AMP phosphodiesterase of a predetermined concentration was added to said substrate solution and the mixture was reacted at 30° C. for 20 minutes, producing tritium 5'-AMP from the tritium cyclic AMP.
The reaction system was then immersed in boiling water for 2 minutes to stop the reaction, and then this reaction solution was cooled in ice water and, for converting the produced tritium 5'-AMP into tritium adenosine, the solution was added with 0.05 ml (1 mg/ml) of snake poison as 5'-nucleotidase and reacted at 30° C. for 10 minutes. The whole amount of this reaction solution was then added to a cation exchange resin (AG 500 W×4, 200-400 meshes, manufactured by Bio-Rad Co., column size: 0.5×1.5 cm), and the produced tritium anodesine alone was allowed to combine, washed with 6 ml of distilled water and eluted with 1.5 ml of 3 N-ammonia water. The whole quantity of the elutant was added with 10 ml of a triton-toluene type scintillator and the produced tritium adenosine was measured by a liquid scintillation counter to determine the phosphodiesterase activity.
In this way, the phosphodiesterase activation value (Vs) of the test compounds of the respective concentrations was determined, and the phosphodiesterase obstruction rate (%) was determined from said activation value (Vs) and control value (Vc) (obtained from water not containing any test compound) from the following formula: [formula] Known 1-methyl-3-isobutylxanthine was used as control.

Acute Toxicity Test = conditions: mouse, in vivo; male mice, oral administration
Method: The test compounds were administered orally to the mice and LD50 (mg/kg) of the compounds was determined.

[5] = read-out: Inhibition effect on ADP-induced aggregation

Q: What does the source list for “6-{5-[N-(2-Hydroxybutyl)-N-cyclohexylaminocarbonyl]pentyloxy}-3,4-dihydrocarbostyril [Example 16]”?
A: Increasing effect of cerebral blood flow (bastard dog; dosage 100 μg/kg): 63.2%; Maximum blood pressure after the administration (difference) ([1]; 1 hour): -20.2 ± 8.0 mmHg; Maximum blood pressure after the administration (difference) ([1]; 2 hours): -21.2 ± 9.7 mmHg; Maximum blood pressure after the administration (difference) ([1]; 4 hours): -16.2 ± 6.8 mmHg; Maximum blood pressure after the administration (difference) ([1]; 6 hours): -6.5 ± 8.5 mmHg

Q: For “6-{3-[N-(4-Hydroxybutyl)-N-cyclohexylaminocarbonyl]propoxy}carbostyril [Example 7]”, which “Increasing effect of cerebral blood flow” value (bastard dog; dosage 300 μg/kg) is on record?
A: 80.2%

Q: Which results are given for `O=C1CCc2cc(OCCCC(=O)N3CCN(Cc4ccccc4)CC3)ccc2N1` [No. 15, 6-[3-(4-Benzyl-1-piperazinylcarbonyl)propoxy]-3,4-dihydrocarbostyril]?
A: inhibition at 10 µM [2]: 98.8%; inhibition at 1 µM [2]: 24.6%; inhibition at 100 µM [3]: 100%; inhibition at 10 µM [3, 5]: 100%; inhibition at 1 µM [3, 5]: 25.8%; pIC50 [4]: 7.40; LD50 (Acute Toxicity Test): > 1000 mg/kg

Q: With `COc1ccc(Cc2nccc3cc(OC)c(OC)cc23)cc1OC` [Papaverin, papaverine, reference compound] as the molecule, how does the “Increasing effect of cerebral blood flow” value (bastard dog; dosage 1,000 μg/kg) read?
A: 86.0%

Q: With `CN(Cc1ccco1)C(=O)CCCOc1ccc2[nH]c(=O)ccc2c1` [No. 4, 6-{3-[N-Methyl-N-(2-furylmethyl)aminocarbonyl]propoxy}carbostyril] as the molecule, how does the inhibition at 100 µM ([2]; concentration of the test compound solution 10^-4 mole) read?
A: 92.5%

Q: What about the inhibition at 10 µM [2] of the same molecule?
A: 35.8%

Q: What about the inhibition at 1 µM [2] of the same molecule?
A: 4%

Q: And the inhibition at 100 µM [3]?
A: 85.7%

Q: And the inhibition at 10 µM [3, 5]?
A: 13.7%

Q: And the pIC50 [4]?
A: 6.22

Q: What about the LD50 (Acute Toxicity Test) of the same molecule?
A: > 1000 mg/kg

Q: What does the source list for `O=C(OCCN(C(=O)CCCOc1ccc2[nH]c(=O)ccc2c1)C1CCCCC1)c1ccccc1` [No. 10, 6-{3-[N-(2-Benzoyloxyethyl)-N-cyclohexylaminocarbonyl]propoxy}carbostyril]?
A: inhibition at 10 µM [2]: 100%; inhibition at 1 µM [2]: 100%; inhibition at 0.1 µM ([2]; concentration of the test compound solution 10^-7 mole): 56.7%; inhibition at 100 µM [3]: 100%; inhibition at 10 µM [3, 5]: 80.7%; inhibition at 1 µM [3, 5]: 42.6%; inhibition at 0.1 µM ([3]; concentration of the test compound solution 10^-7 mole, read-out: Inhibition effect on ADP-induced aggregation): 7.1%; pIC50 [4]: 7.92; LD50 (Acute Toxicity Test): > 1000 mg/kg

Q: With “6-{3-[N-(2-Hydroxyethyl)-N-cyclooctylaminocarbonyl]propoxy}-3,4-dihydrocarbostyril [Example 5]” as the molecule, how does the “Increasing effect of cerebral blood flow” value (bastard dog; dosage 100 μg/kg) read?
A: 43.5%

Q: For “6-{4-[N-(2,3-Dihydroxypropyl)-N-cyclohexylaminocarbonyl]butoxy}carbostyril [Example 14]”, which “Increasing effect of cerebral blood flow” value (bastard dog; dosage 100 μg/kg) is on record?
A: 51.6%

Q: Which “Increasing effect of cerebral blood flow” value (bastard dog; dosage 30 μg/kg) does the source give for “6-{4-[N-(2-Hydroxybutyl)-N-cyclohexylaminocarbonyl]butoxy}carbostyril [Example 13]” here?
A: 98.9%

Q: For “6-{4-[N-(2-Hydroxybutyl)-N-cyclopentylaminocarbonyl]butoxy}-3,4-dihydrocarbostyril [Example 12]”, which “Increasing effect of cerebral blood flow” value (bastard dog; dosage 300 μg/kg) is on record?
A: 73.5%
